Where no end group is shown, it is not given here.
Experiment: Pharmacokinetics studies in mice (i.v. and s.c. bolus, plasma LC–MS/MS)
Type: in vivo
Details: mouse; for AUC / bioavailability: both sexes, C57BL/6 N J, plasma LC–MS/MS; for AUC: tail vein blood over 90 min; for Clearance: s.c.
Procedure: Male and female mice aged between 12–18 weeks old were used for these studies. Gast p59−79, ChgA 435−462a and Sst 25−36 were administered intravenously (i.v.) at 1 mg/kg and subcutaneously (s.c.) at various doses (see Fig. 7A, B and C for details on specific doses for each peptide). Blood samples were collected using EDTA coated microvette tubes (Starsedt, Leicester, UK) from the tail vein at various time points over 90 min. Blood was centrifuged (2000 g, 10 min, 4 °C) and the plasma separated. A 0.1 M sodium citrate (Sigma-Aldrich) buffer (adjusted to pH 3 with citric acid (Sigma-Aldrich)) was added to the plasma at a dilution of 1 in 10 to prevent degradation of Gast p59−79 and Sst 25−36. Plasma was stored -70 °C till extraction.
On the day of analysis, plasma samples were thawed, spiked with a stable isotope labelled version of Gast p59−79, ChgA 435−462a or Sst 25−36, and crashed with 200 μL 80 % ACN. After centrifuging, supernatants were removed and dried under gaseous nitrogen at 40 °C using a SPE Dry evaporator system (Biotage, Upsalla, Sweden). SPE was performed as described previously.
A Xevo TQ-XS triple quadrupole mass spectrometer coupled to H-class Aquity UPLC system enabled high throughput and targeted sample analysis. The column used was a Waters HSS T3 2.1 × 50 mm column at 60 °C and flowing at 350 μL/min. LC–MS/MS analysis was performed using positive ESI with a spray voltage of 3 kV, desolvation temperature 600°C, gas flow rate 1000 L/h and cone voltage of 40 V. Solvent A was 0.1 % FA in water (v/v) and Solvent B was 0.1 % FA in ACN (v/v). Each sample (40 μL per sample) was injected onto the column for 30 s with starting conditions set at 90 % A and 10 % B before the % B was increased to 50 % over the course of 3.5 min. The column was flushed with 90 % B for 1.5 min before initial conditions were restored. Total run time per sample was 5.5 min. Table 1 details the specifications used to quantify Gast p59−79, ChgA 435−462a, Sst 25−36 and their stable isotope labelled versions on a Xevo TQ-XS mass spectrometer.
Raw data files obtained on the Xevo TQ-XS triple quadrupole mass spectrometer were analysed using TargetLynx XS v4.2 software (Waters). Peptides were quantified by integrating the corresponding peaks and normalised to an internal standard if available. For pharmacokinetics studies, the concentration of peptide was estimated by comparing against a calibration line. SAAM II v2.2.1 (The Epsilon Group) with a Rosenbrock integrator and no maximum number of iterations was used to create a model for Gast p59−79 distribution and elimination upon single dose administration to mice.

AUC (sc, 10 mg/kg) [ng·h/mL] | detection in plasma after s.c. injection (in vivo, sc, 10 mg/kg) | half-life in vivo (in words) (pilot data) | Clearance (10 mg/kg) [mL/h/kg] | AUC (iv, 1 mg/kg) [ng·h/mL] | bioavailability (sc, 1 mg/kg) [%] | AUC (sc, 1 mg/kg) [ng·h/mL] | bioavailability (sc, 3 mg/kg) [%] | AUC (sc, 3 mg/kg) [ng·h/mL] | mass delivery rate required to obtain steady state concentration of 1 nM (estimated from PK data (SAAM II model), osmotic pump infusion) [mg/kg/day] | Clearance (1 mg/kg) [mL/h/kg] | Clearance (3 mg/kg) [mL/h/kg] | Substance
3.3 | only detectable at low concentrations | very short half-life | 3030 |  |  |  |  |  |  |  |  | APSDPRLRQFLQ [Sst 25−36]
 |  |  |  | 362 | 46.7 | 169 | 50.4 | 547 | 0.29 | 5.92 | 5.48 | AEDQELESLSAIEAELEKVAHQLQALRR-NH2 [ChgA 435−462a]

— PMC8121762, “Peptidomics of enteroendocrine cells and characterisation of potential effects of a novel preprogastrin derived-peptide on glucose tolerance in lean mice” (Peptides, 2021)
